Measured values as given in patent US5817816A (Meiji Seika Kaisha, Ltd., priority 1997, dated 1998).

These compounds were tested against T1, progesterone receptor (Sus scrofa, UniProt D0EWS6) (assay: Progesterone receptor binding inhibition ([3H]-progesterone, hog uterus cytosol)). Conditions: [3H]-progesterone ligand, 60 min at 4° C.
T1 construct: from tissue; host or cells: hog uterus, 100,000×g supernatant (cytosol)
T1 sequence (D0EWS6 1-934): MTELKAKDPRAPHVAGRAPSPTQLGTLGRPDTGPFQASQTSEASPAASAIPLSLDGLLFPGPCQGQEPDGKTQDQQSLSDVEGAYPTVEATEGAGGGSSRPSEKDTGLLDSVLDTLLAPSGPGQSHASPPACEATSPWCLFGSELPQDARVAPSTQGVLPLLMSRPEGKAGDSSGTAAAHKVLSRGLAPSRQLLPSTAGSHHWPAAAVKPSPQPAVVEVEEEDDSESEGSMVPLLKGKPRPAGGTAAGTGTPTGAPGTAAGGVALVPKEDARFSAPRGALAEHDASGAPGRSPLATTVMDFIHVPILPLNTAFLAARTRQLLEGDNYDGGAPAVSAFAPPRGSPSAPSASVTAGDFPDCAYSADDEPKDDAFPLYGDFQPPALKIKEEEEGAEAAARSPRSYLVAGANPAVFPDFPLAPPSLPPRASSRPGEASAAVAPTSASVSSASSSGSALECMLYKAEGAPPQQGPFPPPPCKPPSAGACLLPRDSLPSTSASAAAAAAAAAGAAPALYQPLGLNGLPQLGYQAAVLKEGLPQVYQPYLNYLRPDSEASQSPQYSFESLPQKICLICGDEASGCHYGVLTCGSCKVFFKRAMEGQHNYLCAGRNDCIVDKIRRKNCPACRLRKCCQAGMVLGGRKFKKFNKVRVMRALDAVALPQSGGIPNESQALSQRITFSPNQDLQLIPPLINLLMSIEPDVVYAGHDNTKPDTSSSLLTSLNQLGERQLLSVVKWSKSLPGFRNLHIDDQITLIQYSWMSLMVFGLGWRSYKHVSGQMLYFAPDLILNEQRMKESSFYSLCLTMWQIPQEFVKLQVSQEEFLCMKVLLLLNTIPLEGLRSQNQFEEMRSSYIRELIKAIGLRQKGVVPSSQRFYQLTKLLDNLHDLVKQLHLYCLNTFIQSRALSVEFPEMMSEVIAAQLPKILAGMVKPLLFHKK
Set-up: species or system hogs
Procedure: That is, uteri taken from hogs were disrupted in 5 mM phosphate buffer by means of Polytron homogenizer, and this solution was centrifuged (100,000×g, 30 min) to separate the supernatant, thereby preparing a cytosol containing progesterone receptor. A given concentration of a test drug solution (10 μl) was added to a solution composed of 50 μl of the cytosol obtained Just above (2-3 mg protein/ml) and 40 μl of a solution of [^3 H]-progesterone as a ligand (3.84 TBq/mM, 18.5 kBq/ml), and they were incubated in a test tube for 60 min at 4° C. to effect a reaction. Then, 100 μl of a 0.5% activated carbon solution was added to the reaction solution, and the mixture was allowed to stand for 10 min and then centrifuged (2,000×g, 10 min). The radioactivity of the supernatant was measured with a liquid scintillation counter.
Separately, the radioactivity was measured in the same manner as described above, except that no test drug was added. Further, the radioactivity was measured in the same manner as described above, except that 10 μl of Medroxyprogesterone Acetate (MPA) (10 μg/ml) was added instead of the test drug. The radioactivity with no test drug added was defined as the amount of total binding of [^3 H]-progesterone to the cytosol, and the radioactivity with MPA added was defined as the amount of non-specific binding. […] [formula]
Work on `CC(=O)O[C@H]1CC(Cl)=C2C=C3OC(=O)C(C)=C3C[C@]2(C)[C@H]1C` [Example 7a, 3β-Acetoxy-1-chloroeremophila-1(10),7(11),8(9)-trien-12,8-olide] yielded an IC50 of under 0.1 µM. Work on `CC(=O)O[C@H]1CC=C2C=C3OC(=O)C(C)=C3C[C@]2(C)[C@H]1C` [Example 7b, 3β-Acetoxyeremophila-1(10),7(11),8(9)-trien-12,8-olide] yielded an IC50 of under 0.1 µM. Work on `COC(=O)C(C)=C1C[C@@]2(C)C(=CC1=O)C=C[C@H](OC(C)=O)[C@@H]2C` [Example 14a, 3β-Acetoxy-8-oxoeremophila-1(2),7(11),9(10)-trien-12-oic acid methyl ester] yielded an IC50 of 0.6 µM. `CC(=O)O[C@H]1C=CC2=C[C@H]3OC(=O)C(C)=C3C[C@]2(C)[C@H]1C` [Example 15, 3β-Acetoxyeremophila-1(2),7(11),9(10)-trien-12,8β-olide] gave an IC50 of under 0.1 µM. `CC1=C2C[C@@]3(C)C(=CC=C[C@@H]3C)C=C2OC1=O` [Example 16, Eremophila-1(10),2(3),7(11),8(9)-tetraen-12,8-olide] gave an IC50 of 0.4 µM. `CC(=O)O[C@H]1CC(Sc2ccccc2)=C2C=C3OC(=O)C(C)=C3C[C@]2(C)[C@H]1C` [Example 21a, 3β-Acetoxy-1-phenylthioeremophila-1(10),7(11),8(9)-trien-12,8-olide] gave an IC50 of 0.7 µM. `CCOC1=C2C=C3OC(=O)C(C)=C3C[C@]2(C)[C@@H](C)[C@@H](OC(C)=O)C1` [Example 21b, 3β-Acetoxy-1-ethoxyeremophila-1(10),7(11),8(9)-trien-12,8-olide] was tested, and the IC50 was 0.279 µM.
